From the supplement of paper PMC10307832

How the values were obtained:
Test in all cases: relative viability (nuclei count vs DMSO), 5 days (fraction); higher = more cells survive
Dactolisib + Bortezomib = compound: Cn1c(=O)n(-c2ccc(C(C)(C)C#N)cc2)c2c3cc(-c4cnc5ccccc5c4)ccc3ncc21 [Dactolisib] + CC(C)C[C@H](NC(=O)[C@H](Cc1ccccc1)NC(=O)c1cnccn1)B(O)O [Bortezomib] (partner 0.002 µM)
How it was run: (§1)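 Lung cancer cell lines, seeded in 1536-well plates, were treated the following day by pin tool with a single drug or with five library-drug doses (not always all listed) in √10 steps on top of a fixed anchor-drug dose. Cells were fixed and nuclei stained in one step after 5 days, and nuclei were counted. Relative viability is the nuclei count for treated wells divided by that for vehicle wells, reported as medians of duplicate plates.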

AZ505 + Crizotinib = compound: C1CCC(CC1)N(CCNCCC2=C3C(=C(C=C2)O)NC(=O)CO3)C(=O)CCNCCC4=CC(=C(C=C4)Cl)Cl [AZ505] + C[C@@H](Oc1cc(-c2cnn(C3CCNCC3)c2)cnc1N)c1c(Cl)ccc(F)c1Cl [Crizotinib] (partner 1 µM)
How it was run: as §1

Dactolisib + Vorinostat = compound: Cn1c(=O)n(-c2ccc(C(C)(C)C#N)cc2)c2c3cc(-c4cnc5ccccc5c4)ccc3ncc21 [Dactolisib] + O=C(CCCCCCC(=O)Nc1ccccc1)NO [Vorinostat] (partner 1 µM)
How it was run: as §1

AZ505 + Palbociclib = compound: C1CCC(CC1)N(CCNCCC2=C3C(=C(C=C2)O)NC(=O)CO3)C(=O)CCNCCC4=CC(=C(C=C4)Cl)Cl [AZ505] + CC(=O)c1c(C)c2cnc(Nc3ccc(N4CCNCC4)cn3)nc2n(C2CCCC2)c1=O [Palbociclib] (partner 0.5 µM)
How it was run: as §1

| Cell Line | relative viability (Dactolisib + Bortezomib; first compound 0.002 µM) | relative viability (Dactolisib + Bortezomib; first compound 0.006325 µM) | relative viability (Dactolisib + Bortezomib; first compound 0.02 µM) | relative viability (Dactolisib + Bortezomib; first compound 0.06325 µM) | relative viability (Dactolisib + Bortezomib; first compound 0.2 µM) | relative viability (AZ505 + Crizotinib; first compound 0.08 µM) | relative viability (AZ505 + Crizotinib; first compound 0.253 µM) | relative viability (AZ505 + Crizotinib; first compound 0.8 µM) | relative viability (AZ505 + Crizotinib; first compound 2.53 µM) | relative viability (AZ505 + Crizotinib; first compound 8 µM) | relative viability (Dactolisib + Vorinostat; first compound 0.002 µM) | relative viability (Dactolisib + Vorinostat; first compound 0.006325 µM) | relative viability (Dactolisib + Vorinostat; first compound 0.02 µM) | relative viability (Dactolisib + Vorinostat; first compound 0.06325 µM) | relative viability (Dactolisib + Vorinostat; first compound 0.2 µM) | relative viability (AZ505 + Palbociclib; first compound 0.08 µM) | relative viability (AZ505 + Palbociclib; first compound 0.253 µM) | relative viability (AZ505 + Palbociclib; first compound 0.8 µM) | relative viability (AZ505 + Palbociclib; first compound 2.53 µM) | relative viability (AZ505 + Palbociclib; first compound 8 µM) |
| --- | --- | --- | --- | --- | --- | --- | --- | --- | --- | --- | --- | --- | --- | --- | --- | --- | --- | --- | --- | --- |
| H3255 | 0.798 | 0.693 | 0.766 | 0.664 | 0.39 | 0.702 | 0.854 | 0.904 | 0.913 | 0.918 | 0.936 | 0.783 | 0.706 | 0.811 | 0.594 | 0.292 | 0.31 | 0.301 | 0.298 | 0.302 |
| HARA | 1.12 | 1.08 | 1.13 | 1.1 | 0.491 | 0.954 | 0.89 | 0.896 | 0.909 | 0.948 | 0.578 | 0.461 | 0.523 | 0.41 | 0.11 | 0.198 | 0.266 | 0.185 | 0.218 | 0.224 |
| HCC-15 | 0.977 | 0.987 | 0.961 | 0.823 | 0.554 | 0.791 | 0.908 | 0.772 | 0.844 | 0.823 | 0.961 | 0.786 | 0.85 | 0.498 | 0.373 | 0.78 | 0.714 | 0.686 | 0.847 | 0.739 |
| HCC-44 | 0.932 | 0.84 | 0.968 | 0.535 | 0.516 | 0.748 | 0.772 | 0.804 | 0.773 | 0.791 | 1.12 | 1.14 | 1.21 | 1.14 | 0.885 | 0.966 | 1.03 | 0.945 | 0.976 | 0.91 |
